# Results published in patent US20250144067A1, “PERSONALIZED STARVATION THERAPY FOR CANCER” (Faeth Therapeutics, Inc., priority 2021, published 2025).
# Where a name gives a salt, the structure may show the parent alone. Read-outs that look alike come from different tables or passages of the source.
# Experiments:
# [1] = system: NCI-H292 lung cancer cells; assay: FDA drug screening, complete media vs cholesterol-free media without statin (TABLE 1); assay type: cell-based, human
# [2] = system: NCI-H292 lung cancer cells; assay: FDA drug screening, complete media vs cholesterol-free media with simvastatin (TABLE 2); assay type: cell-based, human
# [3] = NCI-H292 cells, cholesterol-free media without statin
# [4] = complete vs cholesterol-free media, greater than 0 enhanced anti-cancer activity, about 0 neutral, below 0 antagonists
# [5] = NCI-H292 cells, drug in cholesterol-free media with simvastatin 0.04 μM
# [6] = NCI-H292 cells, drug in complete media
# [7] = complete media vs cholesterol-free media + simvastatin (0.04 μM), >0 enhanced anti-cancer activity, about 0 neutral, <0 antagonist
# [8] = Complete minus Cholesterol-free, greater than 0 enhanced anti-cancer activity, about 0 neutral, below 0 antagonist
# [9] = NCI-H292 cells, FDA drug library screen, cholesterol-free media without statin
# [10] = NCI-H292 cells, FDA drug library screen, complete media
# [11] = NCI-H292 cells, cholesterol-free media with simvastatin 0.04 μM, cell growth value in FDA drug screen
# [12] = NCI-H292 cells, complete media, cell growth value in FDA drug screen
# [13] = complete media minus cholesterol-free media + simvastatin, >0 enhanced anti-cancer activity, about 0 neutral, <0 antagonist
# [14] = Complete minus Cholesterol-free, greater than 0 enhanced anti-cancer activity, about 0 neutral, below 0 antagonists
# [15] = NCI-H292 cells in cholesterol-free media without statin
# [16] = NCI-H292 cells in complete media
# [17] = Complete minus Cholesterol-free, […]
# [18] = NCI-H292 cells, FDA drug library screen, cholesterol-free media with simvastatin 0.04 μM
# [19] = Complete minus Cholesterol-free, >0 enhanced anti-cancer activity, about 0 neutral, <0 antagonist
# [20] = NCI-H292 cells, cholesterol-free media without statin, FDA drug library screen
# [21] = NCI-H292 cells, complete media, FDA drug library screen
# [22] = NCI-H292 cells, FDA library drug in cholesterol-free media with simvastatin 0.04 μM
# [23] = complete vs cholesterol-free media, >0 enhanced anti-cancer activity, about 0 neutral, <0 antagonist
Molecule,"Cholesterol-free [1, 3]","Complete ([1]; NCI-H292 cells, complete media)","Cholesterol-free media + simvastatin (0.04 μM) [2, 5]","Complete Media [2, 6]","Difference [2, 7]","Difference [2, 13]","Cholesterol-free media + simvastatin (0.04 μM) [2, 18]","Complete Media [2, 10]","Cholesterol-free [1, 20]","Complete [1, 21]",also measured
NC(=O)[C@@H]1C[C@]2(NC(=O)NC2=O)c2cc(F)ccc2O1 [Fidarestat],,,,,,,,,,,Cholesterol-free [1]: 1.491; Complete [1]: 0.686; Difference [1]: −0.80; Cholesterol-free media + simvastatin (0.04 μM) [2]: 1.63; Complete Media [2]: 1.736; Difference [2]: 0.11
CC(C)(C)NC(=O)[C@@H]1C[C@@H]2CCCC[C@@H]2CN1C[C@@H](O)[C@H](Cc1ccccc1)NC(=O)[C@H](CC(N)=O)NC(=O)c1ccc2ccccc2n1 [Saquinavir],1.314,0.9252,0.9867,0.801,−0.19,,,,,,"Difference [1, 4]: −0.39"
COC(=O)C1=C(C)NC(C)=C(C(=O)OCCN2CCN(C(c3ccccc3)c3ccccc3)CC2)C1c1cccc([N+](=O)[O-])c1 (stereo not shown) [Manidipine (dihydrochloride)],,,,,,0.03,,,,,"Difference [1, 8]: −0.08; Cholesterol-free [1, 9]: 0.814; Complete [1, 10]: 0.7357; Cholesterol-free media + simvastatin (0.04 μM) [2, 11]: 1.023; Complete Media [2, 12]: 1.051"
CCN(CC)CCOC(=O)C(c1ccccc1)C1CCCCC1 (stereo not shown) [Drofenine (hydrochloride)],,,,,,0.03,,,,,"Difference [1, 14]: −0.55; Cholesterol-free [1, 15]: 1.437; Complete [1, 16]: 0.8908; Cholesterol-free media + simvastatin (0.04 μM) [2, 11]: 1.111; Complete Media [2, 12]: 1.144"
Azatadine (dimaleate),,,,,,,,,,,"Difference [1, 8]: −0.16; Cholesterol-free [1, 9]: 1.286; Complete [1, 10]: 1.13; Cholesterol-free media + simvastatin (0.04 μM) ([2]; NCI-H292 cells, cholesterol-free media with simvastatin 0.04 μM, FDA drug library screen (TABLE 2)): 1.086; Complete Media ([2]; NCI-H292 cells, complete media, FDA drug library screen (TABLE 2)): 1.047; Difference ([2]; complete media minus cholesterol-free media + simvastatin (0.04 μM), >0 enhanced anti-cancer activity, about 0 neutral, <0 antagonist): −0.04"
Lanreotide (acetate),1.287,1.045,1.388,1.218,,,,,,,"Difference [1, 17]: −0.24; Difference ([2]; complete media vs cholesterol-free media + simvastatin (0.04 μM), […]): −0.17"
O=C(O[C@@H]1C[C@@H]2C[C@H]3C[C@H](C1)N2CC3=O)c1c[nH]c2ccccc12 [Dolasetron],1.4,0.9782,,,,0.05,,,,,"Difference [1, 4]: −0.42; Cholesterol-free media + simvastatin (0.04 μM) [2, 11]: 0.9714; Complete Media [2, 12]: 1.02"
CN1CC(O)C2=C/C(=N/NC(N)=O)C(=O)C=C21 (stereo not shown) [Carbazochrome],,,,,,0.16,1.082,1.238,,,"Difference [1, 8]: −0.14; Cholesterol-free [1, 9]: 1.112; Complete [1, 10]: 0.9668"
CC1Cc2ccccc2N1NC(=O)c1ccc(Cl)c(S(N)(=O)=O)c1 (stereo not shown) [Indapamide],,,1.217,0.9676,−0.25,,,,,,"Difference [1, 14]: −0.63; Cholesterol-free [1, 15]: 1.388; Complete [1, 16]: 0.7593"
Pergolide (mesylate),,,,,,,,,,,Cholesterol-free [1]: 1.027; Complete [1]: 0.8214; Difference [1]: −0.21; Cholesterol-free media + simvastatin (0.04 μM) [2]: 0.9579; Complete Media [2]: 1.079; Difference [2]: 0.12
COc1cc2nc(N3CCN(C(=O)[C@@H]4CCCO4)CC3)nc(N)c2cc1OC [(S)-Terazosin],,,,,−0.10,,0.9768,0.8794,0.9099,0.9163,"Difference [1, 19]: 0.01"
C[C@@H](O)[C@H]1C(=O)N2C(C(=O)[O-])=C(SC3Cn4cnc[n+]4C3)[C@H](C)[C@H]12 (stereo partly shown) [Biapenem],,,,,−0.13,,1.249,1.117,,,"Difference [1, 8]: −0.11; Cholesterol-free [1, 9]: 0.9795; Complete [1, 10]: 0.8733"
Tafenoquine (Succinate),,,,,−0.09,,1.136,1.045,1.252,1.196,"Difference [1, 19]: −0.06"
Cc1ccc(C(C)C)c(O)c1 [Thymol],1.354,1.041,1.184,0.956,−0.23,,,,,,"Difference [1, 4]: −0.31"
C[C@@H]1CN(c2c(F)c(N)c3c(=O)c(C(=O)O)cn(C4CC4)c3c2F)C[C@H](C)N1 [Sparfloxacin],,,,,,0.17,0.949,1.118,,,"Difference [1, 14]: −0.52; Cholesterol-free [1, 15]: 1.45; Complete [1, 16]: 0.9275"
CCCCC(CC)COC(=O)CC(C(=O)OCC(CC)CCCC)S(=O)(=O)O (stereo not shown) [Docusate (Sodium)],1.285,0.839,1.08,0.9061,−0.17,,,,,,"Difference [1, 4]: −0.45"
N[C@H](Cc1ccc(O)cc1)C(=O)O [D-Tyrosine],,,,,−0.43,,,,1.081,1.068,"Difference [1, 19]: −0.01; Cholesterol-free media + simvastatin (0.04 μM) [2, 22]: 1.43; Complete Media ([2]; NCI-H292 cells, FDA library drug in complete media): 0.9975"
Cc1ccccc1OCC(O)CO (stereo not shown) [Mephenesin],,,,,,0.31,1.225,1.535,0.8638,1.459,"Difference [1, 23]: 0.60"
CCCCOc1cc(C(=O)OCCN(CC)CC)ccc1N [Oxybuprocaine hydrochloride],,,,,,0.56,0.4662,1.022,0.7998,0.9021,"Difference [1, 23]: 0.10"
Gemifloxacin (mesylate),1.118,0.9009,,,,0.15,0.9496,1.098,,,"Difference [1, 19]: −0.22"
Nc1ccc(S(=O)(=O)Nc2ncccn2)cc1 [Sulfadiazine],1.21,0.7631,,,,0.06,,,,,"Difference [1, 4]: −0.45; Cholesterol-free media + simvastatin (0.04 μM) [2, 11]: 1.499; Complete Media [2, 12]: 1.555"
Camostat (mesylate),,,,,−0.30,,,,0.6104,0.9828,"Difference [1, 23]: 0.37; Cholesterol-free media + simvastatin (0.04 μM) [2, 22]: 1.328"
COc1ccc2[nH]c([S+]([O-])Cc3ncc(C)c(OC)c3C)nc2c1 (stereo not shown) [Omeprazole],,,0.8585,0.6883,−0.17,,,,,,"Difference [1, 8]: −0.12; Cholesterol-free [1, 9]: 0.995; Complete [1, 10]: 0.8798"
CC1(C)CCC(C)(C)c2cc(NC(=O)c3ccc(C(=O)O)cc3)ccc21 [Tamibarotene],0.7767,0.5392,,,,,0.556,0.7365,,,"Difference [1, 17]: −0.24; Difference ([2]; complete media minus cholesterol-free media + simvastatin, […]): 0.18"
NCCCC(O)(P(=O)(O)O)P(=O)(O)O [Alendronate (sodium hydrate)],,,,,,0.78,0.388,,0.1249,0.2776,"Difference [1, 23]: 0.15"
Cc1cnc(Nc2ccc(OCCN3CCCC3)cc2)nc1Nc1cccc(S(=O)(=O)NC(C)(C)C)c1 [Fedratinib (hydrochloride hydrate)],,,0.6402,0.3774,−0.26,,,,,,"Difference [1, 8]: −0.13; Cholesterol-free [1, 9]: 0.469; Complete [1, 10]: 0.341"
CC1(C)S[C@@H]2[C@H](NC(=O)[C@H](NC(=O)N3CCN(S(C)(=O)=O)C3=O)c3ccccc3)C(=O)N2[C@H]1C(=O)[O-].[Na+] [Mezlocillin (sodium)],,,1.179,0.9159,−0.26,,,,0.8225,1.264,"Difference [1, 23]: 0.44"
CNC(=C[N+](=O)[O-])NCCSCc1csc(CN(C)C)n1 [Nizatidine],1.253,1.026,,,−0.14,,1.118,0.9809,,,"Difference [1, 19]: −0.23"
CC1(C)S[C@@H]2[C@H](NC(=O)[C@H](N)c3ccccc3)C(=O)N2[C@H]1C(=O)[O-].[Na+] [Ampicillin (sodium)],1.356,0.9032,1.087,0.8623,−0.22,,,,,,"Difference [1, 4]: −0.45"
CSc1ccc2c(c1)N(CCC1CCCCN1C)c1ccccc1S2 (stereo not shown) [Thioridazine (hydrochloride)],,,,,−0.13,,1.073,0.9459,1.045,1.124,"Difference [1, 23]: 0.08"
